We go through one molecule from patent publication US9802880B2, “Cannabigerol derivatives” (VIVACELL BIOTECHNOLOGY ESPAÑA S.L., priority 2014, dated 2017).

For one assay, the system named is PPARg. Description: PPARg transactivation assay in HEK-293 cells (GAL4-PPARγ / GAL4-luc). The settings on record: HEK-293 cells, 6 h treatment, FIG. 1.
Assay [1] concerns Ccl2, iNOs, TNFα, IFNg, IL-1b and IL-17. The assay can be described thus: EAE, pro-inflammatory gene expression in spinal cord (real-time PCR). The assay is classed as in vivo, C57BL/6 mice. The settings on record: EAE mice, 10 mg/kg, vs EAE+vehicle, FIG. 7. How it is done:
Gene expression of inflammatory markers including CCL2, IFNγ, INOS, TNFα, IL-1β and IL-17 in the spinal cord was down regulated in EAE+compound (III) (10 mg/kg) group compared with EAE+Vehicle mice. Expression levels were calculated using the 2^−ΔΔct method.
EAE was induced in female C57BL/6 mice at 6-8 weeks of age by subcutaneous immunization with myelin oligodendrocyte glycoprotein polypeptide (MOG35-55) (300 μg) and 200 μg of Mycobacterium tuberculosis (H37Ra Difco, Franklin Lakes, N.J., USA) in a 1:1 mix with […] Freund's adjuvant (CFA, Sigma-Aldrich, Madrid, Spain). […] The mice were examined daily for clinical signs of EAE and disease scores were measured as follows: 0, no disease; 1, limp tail; 2, limp tail and hind limb weakness; 3, hind limb paralysis; 4, hind limb and front limb paralysis; 5, moribund and death. […]
Total RNA was isolated from striata (3NP model) or spinal cord (EAE model) using RNeasy Lipid Tissue Mini Kit (Qiagen, GmbH). The total amount of RNA extracted was quantitated by spectrometry at 260 nm and its purity from the ratio between the absorbance values at 260 and 280 nm. […] The iQ™ SYBR Green Supermix (Bio-Rad) was used to quantify mRNA levels for COX-2, TNF-α, IL-6, IL-17, IL-1β, IFN-γ, CCL-2 or iNOS depending on disease's model. […] Expression levels were calculated using the 2^−ΔΔct method.

A further assay concerns EAE mice. The assay can be described thus: Experimental autoimmune encephalomyelitis (EAE), clinical score. The assay is classed as in vivo, C57BL/6 mice. How it is done:
C57BL/6 mice were immunized with MOG35-55 and their clinical score evaluated daily. Mice were treated daily with compound (III) (10 mg/kg) on day 6 post-immunization and the 21 following days. […] Values are expressed as means±SEM for 10 animals per group.
C57BL/6 mice were immunized with MOG35-55 and their clinical score evaluated daily. Mice were treated daily with compound (XII) (5 mg/kg) on day 6 post-immunization and the 21 following days. […] Values are expressed as means±SEM for 6 animals per group.
EAE was induced in female C57BL/6 mice at 6-8 weeks of age by subcutaneous immunization with myelin oligodendrocyte glycoprotein polypeptide (MOG35-55) (300 μg) and 200 μg of Mycobacterium tuberculosis (H37Ra Difco, Franklin Lakes, N.J., USA) in a 1:1 mix with […] Freund's adjuvant (CFA, Sigma-Aldrich, Madrid, Spain). On the same day and 2 days later, mice were injected intraperitoneally (ip) with 200 ng of pertussis toxin (Sigma-Aldrich, Madrid, Spain) in 0.1 ml PBS. […] Treatment started at day 6 post-immunization (p.i.) and consisted in daily injections of compounds III (FIG. 6) and XII (FIG. 8) at the indicated doses or of the vehicle alone (DMSO/PBS) for the following 21 days. The mice were examined daily for clinical signs of EAE and disease scores were measured as follows: 0, no disease; 1, limp tail; 2, limp tail and hind limb weakness; 3, hind limb paralysis; 4, hind limb and front limb paralysis; 5, moribund and death. All animals were sacrificed 28 days (p.i.) for further analysis. Once sacrificed, animals were dissected and their spinal cords were rapidly removed and quickly frozen in RNAlater (Sigma-Aldric, Germany).

The test system of assay [2] is COX-2, iNOS, TNFα and IL-6. The assay can be described thus: 3NP model, inflammatory marker mRNAs in the striatum (real-time PCR). The assay is classed as in vivo, C57BL/6 mice. The settings on record: 3NP-treated mice, 10 mg/kg, FIG. 10 and FIG. 11. How it is done: Gene expression of inflammatory markers including COX-2, TNFα, IL-6 and iNOS, was down regulated in 3NP+compound III (10 mg/kg) treated mice compared with 3NP+Vehicle mice. Expression levels were calculated using the 2^−ΔΔct method. Values are expressed as means±SEM for 6 animals per group.
Gene expression of inflammatory markers including COX-2, TNFα, IL-6 and iNOS, was down regulated in 3NP+XII (10 mg/kg) treated mice compared with 3NP+Vehicle mice. Expression levels were calculated using the 2^−ΔΔct method. Values are expressed as means±SEM for 6 animals per group.
Lesions of the striatum were induced with 3-NP in adult (16 week old; 30 g) male C57BL/6 mice (Harlan Ibérica, Barcelona, Spain). […] The right hemisphere was used to dissect the striatum, which was quickly frozen in RNAlater (Sigma-Aldrich, Germany) to analyzed inflammatory markers were by Real Time PCR. […] We evaluated the general locomotor activity, the hindlimb clasping and dystonia, and the truncal dystonia. […]
Total RNA was isolated from striata (3NP model) or spinal cord (EAE model) using RNeasy Lipid Tissue Mini Kit (Qiagen, GmbH). The total amount of RNA extracted was quantitated by spectrometry at 260 nm and its purity from the ratio between the absorbance values at 260 and 280 nm. […] Expression levels were calculated using the 2^−ΔΔct method.

Take `CCCCCC1=C(NCC)C(=O)C(C/C=C(\C)CCC=C(C)C)=C(O)C1=O` [Compound III, 6-(3,7-dimethyl-octa-2,6-dienyl)-5-hydroxy-3-pentyl-2-ethylamino-[1,4]benzoquinone]: the “PPARg activation (fold) compared with CBG-Q” value in the assay with PPARg is “higher efficiency than CBG-Q”. Besides, the “expression of proinflammatory genes Ccl2, iNOs, TNFα, IFNg, IL-1b and IL-17 in the spinal cord” value in assay [1] was “significant decrease”. Also, the “clinical manifestations of EAE” value with EAE mice (10 mg/kg daily from day 6 post-immunization for 21 days, FIG. 6) is given as “clearly attenuated”. In the assay with EAE mice (10 mg/kg daily, score scale 0-5, vehicle-treated mice reached 2.5), the “EAE clinical score throughout the experiment (day 6-day 28)” value is reported as under 1.3. Moreover, in the assay on EAE mice (10 mg/kg daily, vehicle-treated mice peaked by day 16), the “day on which the disease peaked” value was found to be 17 day post-injection. In assay [2], the “up-regulation of pro-inflammatory markers COX-2, iNOS, TNFα and IL-6 in the striatum” value is “attenuated the up-regulation”.
